One data set relates to C57BL/6 mice. Put plainly: Systemic clearance and pharmacokinetics after i.v. dose in C57BL/6 mice aging 2 months. The data set is classed as in vivo, mouse. To be noted: for Cl u, renal/GFR Ratio: GFR in mice 0.6 L/h per Kg; for dose dependence of kinetics: i.v. 0.2 mg/kg to 4 mg/kg in mice; for biliary clearance share of plasma clearance / remaining / hepatic clearance share of plasma clearance (Clhep/Clp) / renal clearance share of plasma clearance: mice; for Liver first pass elimination: mouse, in vivo; for Cl u, renal: total Cl renal normalised with unbound free fraction in blood. The procedure:
Male C57BL/6 and Bile duct-cannulated (BDC) mice (2 months, weighting: 25–30 g) obtained from Charles River, Inc. (Raleigh, NC) were used to study systemic clearance mechanism, in line with in vitro commercial samples from adolescent animals. Mice were fasted overnight and throughout the duration of the study ([…]), whereas access to water was provided ad libitum. SLOH and SLM were administered i.v. in PBS containing 5% DMSO via the tail vein (n = 5) at different dosages in a dosing volume of 5 mL/kg. Serial blood samples were collected before dosing and at 0.083, 0.167, 0.25, 0.5, 1, 2, 4, 8, 12 and 24 hours after dosing. Urine samples (0–12 and 12–24 hours; pooled 0–24 hours) were also collected after i.v. administration (1 mg/kg). Bile samples were collected at intervals of 0–4, 4–8 and 8–24 hours (pooled 0–24 hours) after dosing (1 mg/kg) to BDC mice.
Parameters in animals were determined using non-compartmental analysis. […] Systemic Cl p was calculated as the i.v. dose divided by AUC0−∞ ^iv. The terminal rate constant (K el) was calculated by a linear regression of the log-linear concentration-time curve, and the terminal elimination t 1/2 was calculated as 0.693 divided by K el. Mean residence time from t = 0 to infinity (MRT 0−∞) was calculated as AUMC 0−∞ divided by AUC 0−∞. Apparent steady-state distribution volume (Vd ss) was determined as Cl p multiplied by MRT 0−∞. […] The Cl bile was derived as the amount of (in milligrams) of SLM or SLOH in the bile over the 24-hour interval postdose/AUC0-24h. The influx clearance into brain (K in) was calculated by using the amount of drug in the brain (homogenate) at time t (A, brain (t)) (corrected for the amount of drug remaining in the cerebral vasculature) divided by plasma exposure up to this time point (AUC, plasma (0 − t)). The C u,brain was calculated by A brain (homogenate, ng/g brain) divided by V u,brain (mL/g brain). The unbound ISF to plasma ratio (K puu,brain) was calculated by unbound AUC 0−t of ISF (ng/mL × min) divided by unbound AUC 0–t (ng/mL × min) of plasma.

Data set [1] is described as follows: Liver microsomes stability with NADPH. To be noted: human; for CLint scaled at 1 μM / microsomal CLint at 1 μM: liver microsomes, pH 7.4; for CLint scaled at 1 μM: read-out: Microsomes Cl int,scaled; for Microsomes scaled Cl hep: well-stirred model; for Microsomes Cl u, int,app: Cl int,app / f u,mic; for microsomal CLint at 1 μM: NADPH, read-out: Microsomes Cl int,app. The data set is classed as in vitro ADME.

The subject of the next data set is Aβ(1–40). Also noted: method as in PMID 22086555. To be noted: cited from earlier work.
Data set [2] in a line: Hepatocyte binding by RED device. Format: in vitro ADME. The protocol: The blood cell partitioning was calculated as follows. […] Plasma, liver microsomes and hepatocyte binding by RED device The stability of the compounds in plasma, liver microsomes and hepatocyte were studied to ensure the reliability of the binding data. Hepatocyte was deactivated by leaving them on a bench for 2 days and going through a freeze thaw cycle thereafter. […] Natural logarithm of peak area ratios (compound peak area normalized by IS peak area) were plotted against time and half-life calculated. The spiked plasma solutions, microsomes and hepatocytes (400 µL) after observing stability were placed into the sample chamber (indicated by the red ring) with 400 µL of PBS into the adjacent chamber. […] The experimental procedure outlined in the Thermo Scientific RED device systems brochure was adopted in the present study . The several positive controls were assayed (Table S4). […] For control experiments, NADPH, UDPGA and/or liver microsomes were omitted from these incubations. […] InVitroGROTM HT Medium was used for thawing suspension of cryopreserved hepatocytes. Incubations were conducted in a 96-well flat-bottom polystyrene plate in duplicate. […] 60, 90, 120 minutes by the addition of 4 folds ACN containing berberine chloride as internal standard 5

In the next data set the test system is human hepatocytes. Put plainly: Hepatocyte stability. The data set is classed as in vitro ADME. To be noted: well-stirred model. The protocol: MS/MS. Natural logarithm of peak area ratios (compound peak area normalized by IS peak area) were plotted against time and half-life calculated. […]
placed into the sample chamber (indicated by the red ring) with 400 µL of PBS into the adjacent chamber.
The plate was sealed with a self-adhesive lid and incubated at 37 °C on an orbital shaker (1.5 g approx.) for 4 h. Aliquots (100 µL) were removed from each side of the insert, and analyzed after protein precipitation using 4 folds acetonitrile (ACN) containing berberine chloride as internal standard (IS) by LC-MS/MS (Analytical me thod seen below). The experimental procedure outlined in the Thermo Scientific RED device systems brochure was adopted in the present study . The several positive controls […]
In vitro stability in liver microsomes and hepatocytes
Half-life (t1/2) of SLM or SLOH in liver microsomes was determined in duplicate. In phase I reaction, […]
buffer (pH 7.4) including 81 mM Na2HPO4 and 19 mM NaH2PO4 ) at 37 °C, the reaction mixture was prewarmed at 37 °C for 2 minutes before adding NADPH (1.0 mM). In phase II reaction, the compound […]
5 mM MgCl2, 10 μg/mL alamethicin, and 2% (w/v) BSA. […]
reactions were initiated with the addition of UDPGA (5.0 mM). […]

Another data set concerns AD model mice. The arrangement: method as in PMID 28032988. To be noted: cited from earlier work.
Setting [3] is: human deactivated hepatocytes 0.5 million cells/mL.
[4] abbreviates: mouse deactivated hepatocytes 0.5 million cells/mL.

Where “and” joins values, the source holds several entries; their conditions need not be identical. Equal values may be shown once.

For the molecule `COCCOCCn1c2ccccc2c2cc(/C=C/c3cc[n+](CCO)c4ccccc34)ccc21` [SLOH, (E)-1-(2-hydroxyethyl)-4-(2-(9-(2-(2-metho-xyethoxy)-ethyl)-9H-carbazol-3-yl)vinyl) quinolin-1-ium chloride], in the data set on C57BL/6 mice (C57BL/6 mice 2 months, i.v. 1 mg/kg, 1 mg/kg), the Cl p was 0.610 ± 0.140 L/h per Kg. Besides, in the data set on C57BL/6 mice, the “Cl u, renal/GFR Ratio” value is on record as 0.260 ± 0.0400^$$; the “dose dependence of kinetics” value was “linearity kinetics dependent on dose”; the “biliary clearance share of plasma clearance” value worked out at 34.0%; the “remaining / hepatic clearance share of plasma clearance (Clhep/Clp)” value came out at 64.0%. In the data set with C57BL/6 mice, the “renal clearance share of plasma clearance” value was 1.10%; the “Liver first pass elimination” value was determined as 16.0 % liver blood flow; the “Cl u, renal” value was 0.160 L/h per Kg and 0.160 ± 0.0300^$$ L/h per Kg. In data set [1], the CLint scaled at 1 μM turned out to be 82 ± 13 mL/min/kg; the “Microsomes scaled Cl hep” value amounted to 2 ± 0.333 mL/min/kg; the “Microsomes Cl u, int,app” value is listed as 1.00 ± 0.160^$ mL/min/mg; the microsomal CLint at 1 μM came to 70 ± 10 µL/min/mg. Besides, the “affinity for Aβ(1–40)” value with Aβ(1–40) is listed as “reasonably good affinity”. The “f u,hep, %” value in data set [2] (setting [3]) is on record as 5.50 ± 0.730^$$ %. In data set [2] (setting [4]), the “f u,hep, %” value is on record as 16.0 ± 5.50%. For the same molecule, in the data set on human hepatocytes, the “Hepatocyte scaled Cl hep” value worked out at 1 ± 0.167 mL/min/kg. Besides, in the data set on AD model mice, the “effect on pathological symptom and memory deterioration” value was “alleviate the pathological symptom and memory deterioration”.

In the case of `COCCOCCn1c2ccccc2c2cc(/C=C/c3cc[n+](C)c4ccccc34)ccc21.[I-]` [SLM, (E)-4-(2-(9-(2-(2-methoxyethoxy)ethyl)-9H-carbazol-3-yl)-vinyl)-1-methyl-quinolin-1-iumiodide], in the data set on C57BL/6 mice, the “Cl u, renal/GFR Ratio” value is on record as 1.90 ± 0.390; the “dose dependence of kinetics” value is listed as “linearity kinetics dependent on dose”; the “biliary clearance share of plasma clearance” value is 38.0%; the “remaining / hepatic clearance share of plasma clearance (Clhep/Clp)” value was found to be 58.0%. In addition, in the data set on C57BL/6 mice, the “renal clearance share of plasma clearance” value amounted to 4.50%; the “Liver first pass elimination” value worked out at 16.0 % liver blood flow; the “Cl u, renal” value was 1.10 L/h per Kg and 1.10 ± 0.230 L/h per Kg. For the same molecule, in data set [1], the CLint scaled at 1 μM is 140 ± 19 mL/min/kg; the “Microsomes scaled Cl hep” value was found to be 1.67 ± 0.167 mL/min/kg; the “Microsomes Cl u, int,app” value is 1.50 ± 0.200^$ mL/min/mg; the microsomal CLint at 1 μM worked out at 110 ± 20 µL/min/mg. Besides, the “affinity for Aβ(1–40)” value in the data set with Aβ(1–40) is “reasonably good affinity”. Moreover, in data set [2] (setting [3]), the “f u,hep, %” value is given as 11.0 ± 0.870^$$ %. Also, the “f u,hep, %” value in data set [2] (setting [4]) was found to be 15.0 ± 4.60%. The “Hepatocyte scaled Cl hep” value in the data set with human hepatocytes was found to be 0.833 ± 0.167 mL/min/kg. Besides, in the data set on AD model mice, the “effect on pathological symptom and memory deterioration” value is “alleviate the pathological symptom and memory deterioration”.
